Laboratory results as given in patent publication US20250186457A1, “USE OF AN ORGANOMETALLIC RUTHENIUM COMPOUND FOR THE PREVENTION AND/OR TREATMENT OF DISEASES AND/OR CONDITIONS RELATED TO CANCER IN AN INDIVIDUAL” (FACULDADE DE CIÊNCIAS DA UNIVERSIDADE DE LISBOA, priority 2022, published 2025).

Columns and labels:
[1] = system: KRAS, pAKT, total-AKT, pERK and total-ERK proteins, in SW480 cells; assay: Western blot analysis, SW480 cells harboring KRAS mutation; assay type: cell-based; conditions: 48 h at the IC50 concentration of each compound, KRAS mutated
Description: SW480 cells were exposed for 48 h, at the IC50 concentration of each compound before protein extraction and Western blot analysis.

[2] = system: KRAS, pAKT, total-AKT, pERK and total-ERK proteins in RKO cells; assay: Western blot analysis, RKO cell line harboring wild-type KRAS; assay type: cell-based; conditions: 48 h with IC50 values
MDA-MB-231 = conditions: read-out: IC50 MDA-MB-231 (PMC79); breast cancer cell line; cited from earlier work
SW480 cell line [3] = conditions: IC50 value, 48 h
Description: SW480 cell line was seeded in 12-well plates with one coverslip per well. […] After 48 hours of incubation, the cells were fixed and stained as previously described (Pilon et al., 2020). Representative images were obtained in a fluorescence microscope (Olympus motorized BX63F Upright Microscope) (Olympus@, Tokyo, Japan) at a magnification of 600×.
Representative images (×600) of DAPI (4′,6-diamidino-2-phenylindole), Phalloidin-AlexaFluor 568 and merged were obtained in a fluorescence microscope. The results were obtained from at least three independent experiments.

SW480 cell line [4] = conditions: IC50 of PMC79, 48 h
Description: After 48 h, cells were processed according with (Teixeira et al., 2018). Slides were maintained at −20° C. until visualization in a fluorescence microscope (Leica DM 5000B, Leica Microsystems, Wetzlar, Germany).
DAPI ([…]), FITC (fluorescein isothiocyanate) and merged were obtained by fluorescence microscopy.

[5] = system: proteins involved in MAPK and PI3K signaling pathways, in SW480 cells; conditions: SW480, 48 h, IC50 of PMC79
Description: Samples were processed for LC-MS/MS analysis (Chiva et al. 2018; Olivella et al. 2021). Protein identification and validation, and gene ontology, localization and network analysis were performed as previously described (Perkins et al., 1999; Beer et al., 2017; Perez-Riverol et al., 2022).
Values represent mean of at least three independent experiments.

SW480 cells = conditions: IC50 and 2×IC50, 48 h and 72 h
Description: SW480 cells were incubated with the dye and seeded according to the procedure recommended by CFSE package insert (BD Horizon™). […] After 48 h and 72 h, both floating and attached cells were collected, washed with PBS, centrifuged at 500 rpm for 10 min and the pellet resuspended in PBS before cytometer acquisition.
The effects on proliferation were also studied using carboxyfluorescein succinimidyl ester assay (CFSE). […] Thus, when cell proliferation is inhibited, we observe an increase of the intracellular fluorescence.
The FIG. 3 illustrates the quantification of CFSE median fluorescence intensity normalized to T0 after 48 and 72 h of incubation with IC50 and 2×IC50, in SW480 cell line. The values represent mean±S.D. of at least three independent experiments. Statistical analysis was performed by two-way ANOVA with Dunnett's multiple comparisons test. **P≤0.01; ***P≤0.001; ****P≤0.0001 compared with negative control.

A2780 = conditions: read-out: IC50 A2780; ovarian cancer cell line; cited from earlier work
breast cancer cell lines [6] = conditions: cited from earlier work
SW480 cell line [7] = system: SW480 cell line
Description: SW480 cell line was seeded in 6-well plates. […] 24 h and 48 h later, cells were collected and processed according to the method described in (Teixeira et al., 2018). Cell-cycle phase data analysis and quantification was performed using FlowJo 10.7.2 software.

SW480 cell line [8] = assay: Wound healing assay; conditions: IC50 and 2×IC50, 12 h
Description: SW480 cell line was seeded at a concentration of 7×10^5 cells/ml, in 6-well plates. […] The negative control cells were treated with DMSO 0.1%. Each condition was photographed at 0 h, 4 h, 8 h and 12 h. To analyze the data and measure the wound size at each time-point ImageJ 1.53a software was used.
Values represent mean±S.D. of at least three independent experiments. Statistical analysis was performed by one-way ANOVA with Turkey's multiple comparisons test. *P≤0.05; ***P≤0.001 compared with negative control.

breast cancer cell lines [9] = conditions: cited from earlier work; remark: listed apart in the source
SW480 cell line [10] = assay: Colony formation assay; conditions: 48 h with ¼ IC50 and ½ IC50, SW480
Description: SW480 cell line was seeded, at a concentration of 500 cells/ml, in 6-well plates. […] The negative control cells were treated with DMSO 0.1%. […] Medium was renewed every 3 days. Nine days after removing the treatments, cells were stained as previously described (Côrte-Real, Karas, Brás, et al., 2019).
The FIG. 1 illustrates the analysis of the colony formation ability, after 48 h of incubation with ¼ IC50 and ½ IC50, in SW480 cell line. […] The values represent mean±S.D. of at least three independent experiments. Statistical analysis was performed by one-way ANOVA with Dunnett's multiple comparisons test. ****P≤ 0.0001 compared with negative control.

[11] = system: KRAS, pAKT, total-AKT, pERK and total-ERK proteins, in LS174T cells; conditions: 48 h of incubation, KRAS mutation
Description: Preparation of total protein extracts of colorectal cancer cell lines (RKO, LS174T and SW480), SDS-PAGE and Western blots were performed as previously described (Alves et al., 2015).
The Antibodies used were anti-KRAS and β-actin (Sigma); anti-phospho p44/42 MAPK (Thr202/Tyr204) (pERK), anti-p44/42 total (ERK), anti-phospho Akt (Ser473) (pAKT) and anti-Akt total (Cell Signaling) (AKT); GAPDH (Gene Tex). Proteomic study
GAPDH immunoblot was used as a loading control. The results were obtained from at least three independent experiments.

MCF7 = conditions: breast cancer cell line; cited from earlier work
breast cancer cell lines [12] = conditions: cited from earlier work; remark: listed apart in the source
SW480 CRC cell line = conditions: read-out: IC50 in SW480 CRC cell line; Sulforhodamine B, 48 h
Description: (§1) The noncancerous NCM460 cell line derived from normal colon epithelial mucosa, was obtained from INCELL's (Moyer et al., 1996), and the colorectal cancer derived cell lines, SW480, LS174T and RKO, were obtained from American Type Culture Collection (ATCC). All cell lines were maintained at 37° C. under a humidified atmosphere containing 5% CO2. NCM460 and SW480 cells were grown in RPMI medium and LS174T and RKO cells in DMEM, all supplemented with 10% FBS and 1% penicillin/streptomycin. SW480 cell were seeded normally at a concentration of 1×10^5 cells/ml except for some specific assays.
(§2) After 48 h of treatment, Sulforhodamine B was performed as previously described (Côrte-Real et al., 2019). Results were expressed relatively to the negative control (1), which was considered as 100% of cell growth.
(§3) Values represent mean+SD of at least three independent experiments.

[13] = system: noncancerous NCM460 cell line derived from normal colon epithelial mucosa; conditions: read-out: IC50 in noncancerous cell line NCM460; Sulforhodamine B, 48 h
Description: as §1, §2, §3

SW480 = conditions: IC50 value, 48 h
Description: Acquisition was performed using CytoFLEX Cytometer (Beckman Coulter, Brea, CA, USA).
The FIG. 4 illustrates the apoptotic cell death analysis.

N.N.[Cl][Pt][Cl] [cisplatin, reference compound]
expression of KRAS, pERK, total-ERK, pAKT and total-AKT in SW480 [1]: not observed
expression of KRAS, pERK, total-ERK, pAKT and total-AKT in RKO [2]: The same was also observed

O=S(=O)([O-])C(F)(F)F.OCc1ccnc(-c2cc(CO)ccn2)c1.[Ru+2].c1cc[cH-]c1.c1ccc(P(c2ccccc2)c2ccccc2)cc1 [PMC79, ({2,2′-bipyridine}-4,4′-diyldimethanol-k^2N, N′)(η^5-cyclopentadienyl) (6riphenylphosphine) ruthenium (II) triflate]
IC50 (MDA-MB-231): 2.1 µM
F-actin organization and morphology (SW480 cell line [3]): affect cell-cell adhesion and intercellular contacts establishment
TUNEL positive cells (SW480 cell line [4]): increase of the number of apoptotic cells (TUNEL positive)
Abundance Ratio (log2): (pmc79)/(Control), AKT1 [5]: −0.4039
Abundance Ratio (log2): (pmc79)/(Control), AKT2 [5]: −0.2506
Abundance Ratio (log2): (pmc79)/(Control), EGFR [5]: −0.948
Abundance Ratio (log2): (pmc79)/(Control), ERK1 [5]: −0.3601
Abundance Ratio (log2): (pmc79)/(Control), KRAS [5]: −0.4019
Abundance Ratio (log2): (pmc79)/(Control), MEK1 [5]: −0.5421
Abundance Ratio (log2): (pmc79)/(Control), MEK2 [5]: −0.2365
Abundance Ratio (log2): (pmc79)/(Control), MTOR [5]: −1.326
Abundance Ratio (log2): (pmc79)/(Control), PIK3C3 [5]: −0.1795
Abundance Ratio (log2): (pmc79)/(Control), PIK3R4 [5]: −0.5555
abundance of all proteins involved in KRAS signaling pathways versus control ([5]; EGFR, KRAS, MEK 1, MEK 2, ERK1, PIK3, AKT1, AKT2, MTOR): less abundant
proliferation (CFSE median fluorescence intensity) (SW480 cells): decrease in proliferation under all conditions
IC50 (A2780): 3.9 µM
mitochondria morphology and actin cytoskeleton in breast cancer cell lines (breast cancer cell lines [6]): induced alterations in mitochondria morphology
cell cycle alteration at 24 h (SW480 cell line [7]; IC50 of PMC79, 24 h): cell cycle arrest at G0/G1 phase
cell cycle alteration at 48 h (SW480 cell line [7]; IC50 of PMC79, 48 h): increase of sub-G1 population
percentage of wound closure (SW480 cell line [8]): decreased the percentage of wound closure in a dose-dependent manner
proliferation / colony formation ability in breast cancer cell lines (breast cancer cell lines [9]): inhibited proliferation by decreasing colony formation ability
clonogenic ability (colony formation) (SW480 cell line [10]): significantly decreased the clonogenic ability
expression of KRAS, pERK, total-ERK, pAKT and total-AKT in LS174T [11]: able to inhibit the expression
expression of KRAS, pERK, total-ERK, pAKT and total-AKT in SW480 [1]: inhibit to a very high extent
IC50 (MCF7): 5.9 µM
apoptosis (Annexin V stained cells) in breast cancer cell lines (breast cancer cell lines [12]): induced apoptosis
IC50 (SW480 CRC cell line): 40 µM
IC50 [13]: 44 µM
necrotic cells (AV−/PI+) (SW480): 10%
percentage of apoptotic cells (AV+/PI−; AV+/PI+) (SW480): 74%
expression of KRAS, pERK, total-ERK, pAKT and total-AKT in RKO [2]: no effect
